Test results from patent US12071624B2, “Antisense oligonucleotide targeting ARL4C molecule, and nucleic acid drug using antisense oligonucleotide” (OSAKA UNIVERSITY, priority 2018, dated 2024).
[AmNA] = 2',4'-bridged nucleic acid with N-methyl amide bridge (AmNA); d = 2'-deoxy (DNA)

Columns and labels:
Assay type in all cases: cell-based, human
FBXL19 mRNA = assay: Off-target gene mRNA by real-time PCR in HLE cells (FBXL19); details: HLE cells transfected at 25 nM
Method: Potential off-target genes in ARL4C ASO (hARL4C ASO-1316-AmNA [15-mer] (ARL4C ASO-1316) and hARL4C-3223-AmNA [19-mer] (ARL4C ASO-3223)) were identified by using database “Human Genomic plus Transcript (Human G+T)” (Build 2.7.1) as well as basic local alignment search tools (BLAST+programs) using MegaBlast algorithm.
(§1) Cell migration assays and quantitative real-time PCR analyses were performed according to the methods reported by Fujii S et al. (Oncogene 2015; 34: 4834-44).
Four genes of neurolysin (NLN), sapiens F-box and leucine-rich repeat protein 19 (FBXL19), keratin-associated protein 15-1 (KRTAP15-1), and sialic acid binding Ig-like lectin 6 (SIGLEC6) were identified as candidates for off-target genes of ASO-1316 and ASO-3223 by in silico analysis. HLE cells were transfected with ASO-1316 and ASO-3223 at 25 nM each, and mRNA amounts of NLN and FBXL19 were measured by real-time PCR; the results are shown in (d) of FIG. 3. […] In addition, KRTAP15-1 and SIGLEC6 were only slightly expressed in the HLE cells (data not shown).

ARL4C mRNA [1] = assay: ARL4C mRNA amount by real-time PCR in HLE cells; details: for effect of reducing the ARL4C mRNA amount at a low concentration: HLE cells transfected at 0.5 to 25 nM
Method: (§2) HLE cells, HCT116 cells, and A549 cells were transfected with 25 to 50 nM ASO and 10 to 20 nM siRNA using Lipofectamine 3000 (Invitrogen, Carlsbad, CA, USA) or RNAiMAX (Invitrogen). Transfected cells were used in the experiments 36 to 48 hours after the end of the transfection.
as §1
(§3) HLE cells and HCT116 cells were transfected with the above-described seven types of ARL4C ASOs and the control ASO at 25 nM, and the ARL4C mRNA amounts were measured by real-time PCR; the results thereof are shown in (a) of FIG. 4. […] In order to optimize the effect of these three types of ARL4C ASOs, four bases were added to each of these three types of ARL4C ASOs, whereby ASO-1312, ASO-1450, and ASO-3223 each of which consisted of 19 bases were produced. With these six types of ARL4C ASOs (ASO-1316, ASO-1312, ASO-1454, ASO-1450, ASO-3225, and ASO-3223), the knockdown effect on ARL4C was further studied.
HLE cells were transfected with ARL4C ASOs (ASO-1316, ASO-1312, ASO-1454, ASO-1450, ASO-3225, and ASO-3223) at 25 nM each, and the ARL4C mRNA amounts were measured by real-time PCR; the results are shown in (c) of FIG. 3. In addition, HLE cells were transfected with ARL4C ASOs (ASO-1316, ASO-1312, ASO-3225, and ASO-3223) at 0.5 to 25 nM each, and the ARL4C mRNA amounts were measured by real-time PCR; the results are shown in (b) of FIG. 4.
HLE cells were treated with 10 μM PD184161 or 10 nM CTNNB1 siRNA (siRNA against CTNNB1), and the ARL4C mRNA amount was measured by real-time PCR; the results are shown in (a) of FIG. 5. In addition, HLE cells were treated with 10 nM CTNNB1 siRNA (siRNA against CTNNB1), and the ARL4C mRNA amount was measured by real-time PCR; the results thereof are shown in (a) of FIG. 6. PD184161 is a compound that inhibits MEK without knocking down […].

ARL4C mRNA [2] = assay: ARL4C mRNA amount by real-time PCR in HCT116 cells; details: HCT116 cells transfected at 25 nM
Method: as §2, §1, §3

ARL4C mRNA [3] = assay: Screening of ARL4C ASO knockdown efficiency by real-time PCR in A549 cells; details: screening of 38 types of ARL4C ASOs
Method: as §2, §1
First, base sequences of 15-nucleotide ARL4C were selected based on the structure of ARL4C mRNA. From thousands of ARL4C ASO candidates, those that may cause hepatotoxicity were excluded, and 38 types of ARL4C ASOs (those other than ASO-1312, ASO-1450 and ASO-3223 among the ASOs in Table 1) were selected, by high-dimensional structure prediction of ARL4C mRNA. The ASOs used in this test were those in which all of the phosphodiester bonds were substituted with phosphorothioate bonds. Knockdown efficiencies of ARL4C ASOs in A549 cells (lung adenocarcinoma cells) were investigated by screening experiments using real-time PCR. It has been confirmed that the protein abundance of ARL4C in A549 cells is reduced by treatment with ARL4C siRNA. The ARL4C mRNA amounts in A549 cells treated with 38 types of ARL4C ASOs were measured, and the results are shown in (a) of FIG. 3.

| Substance | FBXL19 mRNA amount (off-target) (FBXL19 mRNA) | effect of reducing the ARL4C mRNA amount at a low concentration (ARL4C mRNA [1]) | ARL4C mRNA amount (ARL4C mRNA [2]) | knockdown efficiency (ARL4C mRNA amount) (ARL4C mRNA [3]) | ARL4C mRNA amount (ARL4C mRNA [1]; HLE cells transfected at 25 nM) |
| --- | --- | --- | --- | --- | --- |
| ASO-3223: 19-mer ARL4C ASO of Table 1, SEQ ID NO 55 (antisense NNNGGTTACAGTATTTNNC; sugars from the 5' end [AmNA]3 d13 [AmNA]2 d1, backbone, methylation of C and the base at N not given here; further chemistry not fully specified) | did not significantly affect the expression | high effects of reducing the ARL4C mRNA amount | – | – | – |
| ASO-1316: 15-mer AmNA/phosphorothioate ASO targeting ARL4C, base sequence SEQ ID NO: 1 gcatacctcaggtaa; Table 1 SEQ ID NO 13 (antisense GCATACCTCAGGTAA; AmNA and phosphorothioate modified, pattern not given here) | did not significantly affect the expression | high effects of reducing the ARL4C mRNA amount | reduced the ARL4C mRNA amount | high knockdown efficiencies | reduced the ARL4C mRNA amount |
